Measured values as given in ChEMBL document CHEMBL1201862, “PubChem BioAssay data set” (2004).
Active and inactive are the calls of the source.

Key:
[1] = biological target: Voltage-gated inwardly rectifying potassium channel KCNH2 (Homo sapiens, UniProt Q12809); assay: hERG protection from proarrhythmic block, potency, dose response, cell-based, thallium flux (AID 2121); format: ADME
[2] = cytotoxicity in HPDE-C7 cells, cell-based, fluorescence, HTS (AID 430); format: functional; settings: Homo sapiens
[3] = cytotoxicity in KRAS-transformed pancreatic duct cells, primary screen, cell-based, fluorescence, HTS (AID 431); format: functional; settings: Homo sapiens;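 note: cell line used: HPDE-C7K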
[4] = biological target: T1, Protein Tat (Human immunodeficiency virus type 1 group M subtype B (isolate HXB2)(HIV-1), UniProt P04608); format: functional;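 note: tat binding to TAR RNA read out by fluorescence polarization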
T1 sequence (P04608 whole entry): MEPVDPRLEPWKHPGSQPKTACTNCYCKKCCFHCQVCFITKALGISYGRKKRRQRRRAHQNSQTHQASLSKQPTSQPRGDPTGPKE

[5] = biological target: T2, Calpain-2 catalytic subunit (Sus scrofa, UniProt P43367); assay: pig calpain II inhibitor potency, dose response, biochemical, fluorogenic peptide substrate (AID 1420); format: functional
T2 sequence (P43367 whole entry): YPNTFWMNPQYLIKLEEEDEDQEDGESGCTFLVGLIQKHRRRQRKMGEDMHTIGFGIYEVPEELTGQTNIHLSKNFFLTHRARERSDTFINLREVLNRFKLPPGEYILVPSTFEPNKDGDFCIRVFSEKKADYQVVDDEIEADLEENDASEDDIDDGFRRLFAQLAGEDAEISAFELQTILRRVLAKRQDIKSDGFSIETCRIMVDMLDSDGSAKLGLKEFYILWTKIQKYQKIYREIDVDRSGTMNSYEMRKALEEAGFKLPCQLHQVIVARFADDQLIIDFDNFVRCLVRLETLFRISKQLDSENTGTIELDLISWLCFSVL

[6] = biological target: T3, Corticotropin-releasing factor receptor 2/Corticotropin-releasing factor-binding protein (Homo sapiens, UniProt P24387+Q13324); assay: Dose Response confirmation of uHTS hits for small molecule antagonists of the CRF-binding protein and CRF-R2 receptor complex.; format: functional; settings: read-out: IC50_Mean
T3 sequence (Q13324 whole entry): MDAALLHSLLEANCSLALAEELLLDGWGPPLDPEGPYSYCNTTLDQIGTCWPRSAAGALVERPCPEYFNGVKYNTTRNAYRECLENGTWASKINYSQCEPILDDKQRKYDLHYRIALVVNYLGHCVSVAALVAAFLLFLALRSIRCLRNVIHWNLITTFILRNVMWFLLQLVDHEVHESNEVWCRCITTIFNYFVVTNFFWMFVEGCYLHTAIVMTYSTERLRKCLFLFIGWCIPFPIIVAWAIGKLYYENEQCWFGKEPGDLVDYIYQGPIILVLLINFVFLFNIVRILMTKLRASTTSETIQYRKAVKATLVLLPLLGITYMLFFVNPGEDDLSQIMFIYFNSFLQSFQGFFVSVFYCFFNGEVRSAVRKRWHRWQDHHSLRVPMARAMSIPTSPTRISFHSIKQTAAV
T3 sequence (P24387 whole entry): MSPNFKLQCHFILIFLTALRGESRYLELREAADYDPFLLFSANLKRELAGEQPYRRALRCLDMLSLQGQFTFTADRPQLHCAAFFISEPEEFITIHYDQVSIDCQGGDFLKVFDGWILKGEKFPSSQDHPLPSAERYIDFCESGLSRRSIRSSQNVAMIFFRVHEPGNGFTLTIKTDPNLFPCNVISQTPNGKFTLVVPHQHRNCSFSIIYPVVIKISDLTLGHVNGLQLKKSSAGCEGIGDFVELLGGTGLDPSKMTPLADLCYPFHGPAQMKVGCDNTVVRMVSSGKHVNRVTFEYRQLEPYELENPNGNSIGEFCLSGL

[7] = biological target: T3, Corticotropin-releasing factor receptor 2/Corticotropin-releasing factor-binding protein; assay: activators of CRF receptor 2 with binding protein – uHTS hits, confirmation (AID 602473); format: functional; settings: read-out: EC50_Mean
[8] = biological target: T4, 1-phosphatidylinositol 4,5-bisphosphate phosphodiesterase gamma-1 (Homo sapiens, UniProt P19174); assay: Counterscreen for inhibitors of phospholipase C isozymes (PLC-B3): Fluorescence-based biochemical high throughput dose response assay to identify inhibitors of phospholipase C isozymes (PLC-gamma1).
T4 sequence (P19174 whole entry): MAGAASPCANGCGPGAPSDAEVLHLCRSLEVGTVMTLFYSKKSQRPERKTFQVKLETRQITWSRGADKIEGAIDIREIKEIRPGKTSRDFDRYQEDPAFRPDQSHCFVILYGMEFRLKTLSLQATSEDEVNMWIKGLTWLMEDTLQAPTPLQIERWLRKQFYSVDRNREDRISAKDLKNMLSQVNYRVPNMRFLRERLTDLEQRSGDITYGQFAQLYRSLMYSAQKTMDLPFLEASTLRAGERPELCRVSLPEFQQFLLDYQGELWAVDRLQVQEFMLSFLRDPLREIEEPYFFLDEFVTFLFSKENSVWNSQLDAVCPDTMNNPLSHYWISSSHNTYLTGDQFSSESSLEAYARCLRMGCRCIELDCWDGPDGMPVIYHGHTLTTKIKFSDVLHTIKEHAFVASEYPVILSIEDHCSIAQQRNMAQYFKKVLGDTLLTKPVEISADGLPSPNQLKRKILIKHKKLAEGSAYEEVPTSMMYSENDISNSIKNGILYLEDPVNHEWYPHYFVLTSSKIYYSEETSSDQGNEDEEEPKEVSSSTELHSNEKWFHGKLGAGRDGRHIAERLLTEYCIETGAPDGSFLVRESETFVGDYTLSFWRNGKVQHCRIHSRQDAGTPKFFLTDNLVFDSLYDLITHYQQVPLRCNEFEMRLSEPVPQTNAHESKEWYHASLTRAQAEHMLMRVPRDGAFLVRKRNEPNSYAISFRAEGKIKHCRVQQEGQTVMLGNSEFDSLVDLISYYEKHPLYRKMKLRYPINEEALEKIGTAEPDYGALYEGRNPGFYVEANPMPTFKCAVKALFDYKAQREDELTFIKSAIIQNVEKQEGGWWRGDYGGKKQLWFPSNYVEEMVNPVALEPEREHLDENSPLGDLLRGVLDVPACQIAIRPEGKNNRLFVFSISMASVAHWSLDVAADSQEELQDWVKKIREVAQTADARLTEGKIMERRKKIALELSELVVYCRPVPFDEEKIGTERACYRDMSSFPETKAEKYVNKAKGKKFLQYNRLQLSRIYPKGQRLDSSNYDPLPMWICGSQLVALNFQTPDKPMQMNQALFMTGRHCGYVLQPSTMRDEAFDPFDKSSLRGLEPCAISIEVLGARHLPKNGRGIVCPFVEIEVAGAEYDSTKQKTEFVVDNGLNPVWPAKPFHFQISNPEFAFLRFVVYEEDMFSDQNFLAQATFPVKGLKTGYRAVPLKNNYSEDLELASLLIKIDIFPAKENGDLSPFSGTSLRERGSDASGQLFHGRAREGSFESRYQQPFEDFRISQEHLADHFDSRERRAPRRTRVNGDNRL

[9] = biological target: T5, 1-phosphatidylinositol 4,5-bisphosphate phosphodiesterase beta-3 (Homo sapiens, UniProt Q01970); assay: Fluorescence-based biochemical high throughput dose response assay to identify inhibitors of phospholipase C isozymes (PLC-B3).
T5 sequence (Q01970 whole entry): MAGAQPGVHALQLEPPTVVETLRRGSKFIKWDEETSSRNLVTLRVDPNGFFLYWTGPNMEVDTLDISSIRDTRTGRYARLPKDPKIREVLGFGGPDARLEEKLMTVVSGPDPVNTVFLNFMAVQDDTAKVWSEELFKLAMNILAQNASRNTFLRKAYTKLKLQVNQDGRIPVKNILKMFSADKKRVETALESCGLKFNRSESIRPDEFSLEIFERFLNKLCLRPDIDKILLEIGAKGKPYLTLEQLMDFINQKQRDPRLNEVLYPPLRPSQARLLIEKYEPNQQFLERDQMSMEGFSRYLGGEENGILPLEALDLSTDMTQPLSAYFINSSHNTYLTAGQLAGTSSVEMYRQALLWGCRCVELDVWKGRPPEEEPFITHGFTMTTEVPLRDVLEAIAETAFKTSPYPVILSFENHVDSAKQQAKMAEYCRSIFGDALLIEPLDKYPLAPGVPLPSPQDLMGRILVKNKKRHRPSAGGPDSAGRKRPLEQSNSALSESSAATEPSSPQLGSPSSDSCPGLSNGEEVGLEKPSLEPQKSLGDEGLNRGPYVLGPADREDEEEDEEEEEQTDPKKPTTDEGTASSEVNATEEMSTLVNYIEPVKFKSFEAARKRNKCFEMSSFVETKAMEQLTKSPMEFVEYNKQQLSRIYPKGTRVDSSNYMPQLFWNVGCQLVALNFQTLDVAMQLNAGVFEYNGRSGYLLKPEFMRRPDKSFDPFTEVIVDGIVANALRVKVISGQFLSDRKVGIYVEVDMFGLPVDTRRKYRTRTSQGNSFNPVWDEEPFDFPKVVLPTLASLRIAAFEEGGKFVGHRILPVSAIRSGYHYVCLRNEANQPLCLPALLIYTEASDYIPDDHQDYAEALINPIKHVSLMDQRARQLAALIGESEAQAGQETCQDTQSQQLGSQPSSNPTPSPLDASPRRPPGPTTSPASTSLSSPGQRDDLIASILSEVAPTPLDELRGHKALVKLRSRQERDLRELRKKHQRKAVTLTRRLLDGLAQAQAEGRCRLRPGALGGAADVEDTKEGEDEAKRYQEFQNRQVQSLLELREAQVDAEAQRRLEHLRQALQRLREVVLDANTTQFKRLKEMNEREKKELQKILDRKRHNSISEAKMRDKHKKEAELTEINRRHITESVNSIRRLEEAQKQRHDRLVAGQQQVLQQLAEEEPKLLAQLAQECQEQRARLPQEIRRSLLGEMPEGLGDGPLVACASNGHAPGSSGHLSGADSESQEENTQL

[10] = LGR2 antagonists, dose response, cell-based, HEK293, CRE-luciferase reporter, cherry pick, set 2 (AID 743343); format: functional;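 note: transfected cells were stimulated with diluted bursicon conditioned medium after compound addition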
[11] = MC4R antagonists, dose response, counter-screen for LGR2 antagonist project, cell-based, plate reader, cherry pick (AID 743444); format: functional;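 note: transfected HEK 293 cells stimulated with alpha-MSH peptide; potency of inhibitors of the alpha-MSH evoked signal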
[12] = HEK293 cell cytotoxicity, dose response, cytotoxicity control, plate reader, cherry-picked samples (AID 743446); format: functional, cell-based
[13] = biological target: Large T antigen (Simian virus 40, UniProt P03070); format: functional, Betapolyomavirus macacae;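 note: Confirmatory-stage PubChem screen for compounds that inhibit SV40 T antigen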
Sequence of Large T antigen (P03070 whole entry): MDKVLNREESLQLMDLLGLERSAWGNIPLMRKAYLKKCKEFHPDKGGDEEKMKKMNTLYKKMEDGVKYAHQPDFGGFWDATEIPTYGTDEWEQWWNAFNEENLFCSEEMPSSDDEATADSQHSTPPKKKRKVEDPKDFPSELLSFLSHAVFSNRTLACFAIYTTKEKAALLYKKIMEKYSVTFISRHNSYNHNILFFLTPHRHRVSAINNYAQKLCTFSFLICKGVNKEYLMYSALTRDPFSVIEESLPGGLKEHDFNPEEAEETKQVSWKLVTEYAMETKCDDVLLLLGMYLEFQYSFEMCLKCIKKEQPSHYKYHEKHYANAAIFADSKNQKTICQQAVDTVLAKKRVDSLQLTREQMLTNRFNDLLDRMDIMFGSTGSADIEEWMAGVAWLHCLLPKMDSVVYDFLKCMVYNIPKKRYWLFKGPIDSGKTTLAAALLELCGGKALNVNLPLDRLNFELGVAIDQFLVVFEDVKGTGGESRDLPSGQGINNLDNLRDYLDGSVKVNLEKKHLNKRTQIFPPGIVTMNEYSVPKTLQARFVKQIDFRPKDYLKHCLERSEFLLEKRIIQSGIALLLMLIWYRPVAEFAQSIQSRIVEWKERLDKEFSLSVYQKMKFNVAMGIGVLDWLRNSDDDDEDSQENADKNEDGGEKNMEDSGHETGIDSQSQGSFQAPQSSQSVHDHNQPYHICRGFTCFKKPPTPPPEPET

[14] = THP-1 cell cytotoxicity, dose response, cytotoxicity control for Vif-APOBEC3G degradation inhibitor project, THP-1 cells (AID 1117359); format: functional; settings: Human immunodeficiency virus 1, THP-1
[15] = biological target: Genome polyprotein (dengue virus type 2, UniProt P29990); assay: Dengue-2 NS5 methyltransferase inhibitors, primary screen, biochemical, confirmation dose response (AID 588689); format: functional
Sequence of Genome polyprotein (P29990 2492-3391 limits assumed): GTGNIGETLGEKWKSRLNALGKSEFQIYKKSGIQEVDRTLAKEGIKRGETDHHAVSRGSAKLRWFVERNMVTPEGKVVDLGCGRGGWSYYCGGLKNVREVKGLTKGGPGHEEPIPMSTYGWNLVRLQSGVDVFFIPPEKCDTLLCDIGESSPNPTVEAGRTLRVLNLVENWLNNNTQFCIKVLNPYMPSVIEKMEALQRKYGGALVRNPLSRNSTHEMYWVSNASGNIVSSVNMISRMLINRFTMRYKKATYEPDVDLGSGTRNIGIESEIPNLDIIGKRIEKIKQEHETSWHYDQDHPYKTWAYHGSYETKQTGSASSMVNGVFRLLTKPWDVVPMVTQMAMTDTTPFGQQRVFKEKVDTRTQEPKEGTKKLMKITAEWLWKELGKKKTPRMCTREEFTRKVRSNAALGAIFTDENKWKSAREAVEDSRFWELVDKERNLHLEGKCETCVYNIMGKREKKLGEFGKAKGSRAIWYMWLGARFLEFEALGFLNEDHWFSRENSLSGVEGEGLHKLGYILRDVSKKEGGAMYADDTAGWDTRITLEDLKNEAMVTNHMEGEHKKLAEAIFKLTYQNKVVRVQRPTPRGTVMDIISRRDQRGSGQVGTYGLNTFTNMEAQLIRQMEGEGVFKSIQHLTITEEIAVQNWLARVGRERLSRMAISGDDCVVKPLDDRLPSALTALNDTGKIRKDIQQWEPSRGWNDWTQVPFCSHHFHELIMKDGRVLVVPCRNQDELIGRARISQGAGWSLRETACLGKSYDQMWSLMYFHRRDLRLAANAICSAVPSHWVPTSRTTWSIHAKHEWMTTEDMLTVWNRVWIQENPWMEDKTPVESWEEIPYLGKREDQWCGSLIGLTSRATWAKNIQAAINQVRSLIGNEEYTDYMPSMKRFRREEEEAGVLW

[16] = inhibitors of PGC1a acetylation in cells, dose response, cell-based, cherry-picked samples (AID 720514); format: functional;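 note: potency may reflect raised or lowered acetylation signal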
[17] = P. falciparum Dd2 growth inhibitors, dose response, SYBR Green, cherry-picked samples (AID 1159567); format: functional, cell-based
[18] = HepG2 cell cytotoxicity, dose response, cytotoxicity control, cherry-picked samples (AID 1159577); format: functional, cell-based
[19] = P. falciparum 3D7-ScDHODH growth inhibitors, dose response, SYBR Green, dry powder samples (AID 1159570); format: functional, cell-based;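 note: parasite growth measured after 72 hours of compound exposure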
[20] = HepG2 cell cytotoxicity, dose response, cytotoxicity control, plate reader, dry powder samples (AID 1159569); format: functional, cell-based;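 note: inhibitor potency with signal falling toward the positive control level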
[21] = P. falciparum Dd2 growth inhibitors, dose response, SYBR Green, dry powder samples (AID 1159566); format: functional, cell-based;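 note: potency for growth inhibition with lower SYBR green DNA signal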
[22] = P. falciparum ATP4 D1247Y mutant growth inhibitors, dose response, NITD609-resistant line, SYBR Green, dry powder (AID 1159571); format: functional, cell-based;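 note: parasites synchronized at ring stage by sorbitol before testing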

Sequence of Voltage-gated inwardly rectifying potassium channel KCNH2 (Q12809 whole entry): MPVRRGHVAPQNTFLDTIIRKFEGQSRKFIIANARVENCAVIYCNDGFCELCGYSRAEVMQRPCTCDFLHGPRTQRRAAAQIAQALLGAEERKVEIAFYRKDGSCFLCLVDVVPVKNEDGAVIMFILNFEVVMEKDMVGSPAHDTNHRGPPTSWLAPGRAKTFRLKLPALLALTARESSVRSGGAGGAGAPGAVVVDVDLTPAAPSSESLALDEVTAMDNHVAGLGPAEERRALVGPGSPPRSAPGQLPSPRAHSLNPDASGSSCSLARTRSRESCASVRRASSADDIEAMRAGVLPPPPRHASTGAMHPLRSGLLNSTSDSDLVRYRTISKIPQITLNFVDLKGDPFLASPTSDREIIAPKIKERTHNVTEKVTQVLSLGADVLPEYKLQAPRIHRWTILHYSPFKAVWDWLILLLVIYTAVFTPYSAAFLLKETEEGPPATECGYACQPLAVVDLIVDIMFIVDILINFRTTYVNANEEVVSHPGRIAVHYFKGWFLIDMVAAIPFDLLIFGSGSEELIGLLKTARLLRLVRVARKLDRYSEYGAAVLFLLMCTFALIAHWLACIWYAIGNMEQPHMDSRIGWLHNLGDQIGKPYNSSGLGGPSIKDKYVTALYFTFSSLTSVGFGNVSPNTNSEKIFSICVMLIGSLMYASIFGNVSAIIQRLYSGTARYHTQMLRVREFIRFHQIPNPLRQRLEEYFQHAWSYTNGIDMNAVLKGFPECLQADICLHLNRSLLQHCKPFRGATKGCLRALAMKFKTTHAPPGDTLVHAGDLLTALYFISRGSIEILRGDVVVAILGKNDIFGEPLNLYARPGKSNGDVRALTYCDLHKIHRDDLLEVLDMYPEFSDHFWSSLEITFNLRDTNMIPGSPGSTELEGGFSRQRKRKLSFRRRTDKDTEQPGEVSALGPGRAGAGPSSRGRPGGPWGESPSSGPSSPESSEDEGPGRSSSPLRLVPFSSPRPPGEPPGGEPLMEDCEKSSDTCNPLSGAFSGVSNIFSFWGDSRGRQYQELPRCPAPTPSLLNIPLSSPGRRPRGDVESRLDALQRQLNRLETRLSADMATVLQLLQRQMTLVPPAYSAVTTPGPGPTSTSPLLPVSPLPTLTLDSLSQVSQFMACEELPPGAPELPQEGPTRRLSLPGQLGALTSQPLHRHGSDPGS

With `CC(=O)c1c(N)nc(-c2ccccc2)nc1S` the EC50 [1] was 11 µM (active).
For `OC(COCc1ccc(Cl)cc1)CN1CCN(CC(O)COCc2ccc(Cl)cc2)CC1` (stereo not drawn), the EC50 [2] was > 20 µM (not active) and the EC50 [3] was > 20 µM (not active).
With `COc1cccc(C(C#N)N2CCCCC2)c1O` (stereo not drawn) the IC50 [4] was > 100 µM (active).
For `Brc1ccc(CSc2nnc(Cc3c[nH]c4ccccc34)o2)cc1`, the EC50 [2] was 14.2 µM (active), the EC50 [3] was 13.4 µM (active) and the IC50 [5] was 5.75 µM (not active). The IC50 [6] was > 47.1 µM (inactive) and the EC50 [7] was > 53 µM (inactive).
In the case of `COc1ccc(NC(=O)c2cc(-c3ccc(OC)c(OC)c3)on2)cc1OC`, the IC50 [8] is reported as > 123 µM (inactive) and the IC50 [9] is reported as > 123 µM (inactive).
With `Cc1cc(C(=O)COC(=O)c2cccn2C)c(C)n1Cc1ccco1` the AC50 [10] was 5.16 µM (active), the AC50 [11] was 9.65 µM (active) and the AC50 [12] was > 52 µM (inactive).
In the case of `C=CCc1cccc(CNc2nc3ccccc3n2CC)c1O`, the EC50 [2] is reported as > 20 µM (not active) and the EC50 [3] is reported as > 20 µM (not active).
With `CCOC(=O)N1CCN(c2ccc(O)cc2)CC1` the IC50 [13] was 10.2 µM (active), the IC50 [4] was 14 µM (inconclusive) and the CC50 [14] was > 40 µM (active).
With `CCOc1cc(Br)cc(C(c2c(C(=O)O)[nH]c3ccccc23)c2c(C(=O)O)[nH]c3ccccc23)c1O` the IC50 [15] was 18.7 µM (active), the IC50 [8] was 18.6 µM (inactive) and the IC50 [9] was > 122 µM (inactive).
For `COC(=O)C[C@@H]1CC[C@@H]2[C@H](COc3ccc(NC(=O)c4cccc(F)c4)cc3C(=O)N2C)O1`, the IC50 [8] was > 122 µM (inactive) and the IC50 [9] was > 122 µM (inactive).
For `COc1cc(CN2C[C@@H]3N[C@H](C2)[C@@H]3c2ccc(/C=C/c3ccccc3)cc2)cc(OC)c1`, the AC50 [16] was 13 µM (active), the AC50 [17] was 2.38 µM (active) and the AC50 [18] was 6.51 µM (active).
In the case of `COc1ccc2c3c(n(C)c2c1)[C@H](CO)N(C(=O)Nc1ccc(F)cc1)CC31CN(C(=O)c2ccc3c(c2)OCO3)C1`, the AC50 [19] is reported as 1.89 µM (active), the AC50 [20] is reported as > 100 µM (inactive) and the AC50 [17] is reported as 2.68 µM (active). The AC50 [21] was 0.683 µM (active) and the AC50 [22] was 1.2 µM (active).
For `CO[C@@H]1CN(C)C(=O)c2ccc(NC(=O)c3nc4ccccc4s3)cc2OC[C@@H](C)N(Cc2ccncc2)C[C@H]1C`, the AC50 [19] was 1.39 µM (active), the AC50 [20] was 26.7 µM (active) and the AC50 [17] was 2.62 µM (active). For the same molecule, the AC50 [21] was 1.33 µM (active), the AC50 [18] was > 39 µM (inactive) and the AC50 [22] was 1.34 µM (active).
